# System: primary osteoblasts
# Test: Percentage of carboxylated OCN (Gla-OCN) over total OCN by ELISA in osteoblast secretion medium
# Type: cell-based, mouse
# Experimental: Primary osteoblasts were transfected using jetPRIME Reagent (Polypus transfection). After an overnight incubation, media were changed to secretion media (FBS-free αMEM plus 2 mM L-glutamine, PS). After 24 hr of secretion, media were collected, and cells were lysed in protein lysis buffer (20 mM Tris-HC pH 7.4, 150 mM NaCl, 1 mM EDTA, 1 mM EGTA, 1% Triton, 1 mM PMSF, and 1 × protease inhibitor cocktail) and analyzed by western blotting. In some experiments, osteoblasts were treated with the γ-carboxylation inhibitor warfarin (50 μM; Santa Cruz Biotechnology), the N-acetylgalactosaminyltransferase inhibitor GalNAc-bn (2 mM, Sigma) or the proprotein convertase inhibitor Dec-RVKR-CMK (50 μM, Tocris), combined with 22 μM vitamin K1 (Sigma).
Compound,"Gla OCN (% of total) (osteoblasts transfected with OCN-V5, inhibitor 2 mM, secretion medium, Figure 2C, replicate 1)","Gla OCN (% of total) (osteoblasts transfected with OCN-V5, inhibitor 2 mM, secretion medium, Figure 2C, replicate 2)","Gla OCN (% of total) (osteoblasts transfected with OCN-V5, inhibitor 50 μM, Figure 2D/2E, replicate 1)","Gla OCN (% of total) (osteoblasts transfected with OCN-V5, inhibitor 50 μM, Figure 2D/2E, replicate 2)","Gla OCN (% of total) (osteoblasts transfected with OCN-V5, inhibitor 50 μM, Figure 2D/2E, replicate 3)","Gla OCN (% of total) (osteoblasts transfected with OCN-V5, inhibitor 50 μM, secretion medium, Figure 2C, replicate 1)","Gla OCN (% of total) (osteoblasts transfected with OCN-V5, inhibitor 50 μM, secretion medium, Figure 2C, replicate 2)","Gla OCN (% of total) (osteoblasts transfected with OCNS8A-V5, inhibitor 50 μM, Figure 2D/2E, replicate 1)","Gla OCN (% of total) (osteoblasts transfected with OCNS8A-V5, inhibitor 50 μM, Figure 2D/2E, replicate 2)","Gla OCN (% of total) (osteoblasts transfected with OCNS8A-V5, inhibitor 50 μM, Figure 2D/2E, replicate 3)"
"CC(=O)N[C@H]1[C@@H](OCc2ccccc2)O[C@H](CO)[C@H](O)[C@@H]1O [GalNAc-bn, benzyl-N-acetyl-α-galactosaminide]",43.4 % of total,43.4 % of total,–,–,–,–,–,–,–,–
CC(=O)CC(c1ccccc1)c1c(O)c2ccccc2oc1=O (stereo not shown) [Warfarin],–,–,29.8 % of total,27.1 % of total,26.1 % of total,14.3 % of total,19.5 % of total,26.8 % of total,20.4 % of total,29.1 % of total
